The values that follow come from patent publication US20120245161A1 (SANOFI, priority 2009, published 2012).

For orientation: Ki means the equilibrium dissociation constant of an inhibitor or competing ligand from its target.

Counter-ions that a name gives are not always drawn. Like-named read-outs stand apart in the source and are kept apart here.

For this experiment, the target named is T1, recombinant human beta tryptase (Homo sapiens, UniProt P20231).
T1 construct: made in house; host or cells: yeast cells
The experiment in a line: beta-Tryptase inhibition, chromogenic enzyme assay (substrate S2366, read at 405 nm). The format is biochemical. A digest of the protocol: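 Recombinant human beta tryptase (yeast-expressed; native lung enzyme also used), 50 ng/mL final, with 0.5 mM (2×Km) chromogenic substrate S2366; 30 min in the dark, room temperature, read at 405 nm. Compounds at 0.01-10 μM in duplicate for IC50; Ki=IC50/(1+[S]/Km).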

The mark [1] stands for this setting: Ki calculated from IC50: Ki=IC50/(1+[Substrate]/Km), 0.5 mM substrate, room temperature, read-out: Tryptase Ki.
[2] abbreviates: Tryptase Ki (nM), Ki calculated from IC50: Ki=IC50/(1+[Substrate]/Km), 0.5 mM substrate, room temperature.

T1 sequence (P20231 31-275): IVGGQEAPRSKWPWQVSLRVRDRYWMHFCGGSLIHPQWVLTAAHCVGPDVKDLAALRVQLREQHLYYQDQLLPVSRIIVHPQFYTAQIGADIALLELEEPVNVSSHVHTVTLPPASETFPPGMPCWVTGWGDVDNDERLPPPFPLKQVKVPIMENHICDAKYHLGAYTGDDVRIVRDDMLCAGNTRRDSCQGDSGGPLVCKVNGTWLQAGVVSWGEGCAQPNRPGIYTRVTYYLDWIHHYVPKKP

In the case of `CCCn1cc(-c2cccc3c2c(C(=O)N2CCC(c4cc(CN)ccc4F)CC2)cn3CCOC(F)(F)F)cn1` [Example 93, [4-(5-Aminomethyl-2-fluoro-phenyl)-piperidin-1-yl]-[4-(1-propyl-1H-pyrazol-4-yl)-1-(2-trifluoromethoxy-ethyl)-1H-indol-3-yl]-methanone dihydrochloride], under setting [1], the Ki is 160 nM.
`COCCn1cc(C(=O)N2CCC(c3cc(CN)ccc3F)CC2)c2c(C(=O)N3CCCCC3)cccc21` [Example 94, [4-(5-Aminomethyl-2-fluoro-phenyl)-piperidine-1-yl]-[1-(2-methoxy-ethyl)-4-(piperidine-1-carbonyl)-1H-indol-3-yl]-methanone hydrochloride]: the Ki under setting [2] is 21 nM.
For the molecule `COCCn1cc(C(=O)N2CCC(c3cc(CN)ccc3F)CC2)c2c(NC(=O)C3CCOCC3)cccc21` [Example 95, Tetrahydro-pyran-4-carboxylic acid [3-[4-(5-aminomethyl-2-fluoro-phenyl)-piperidine-1-carbonyl]-1-(2-methoxy-ethyl)-1H-indol-4-yl]-amide hydrochloride], the Ki is, setting by setting: under setting [2], 44 nM; (Tryptase Ki (nM), additional value in parentheses tagged "719D" (code not explained)) 47 nM; (Tryptase Ki (nM), additional value in parentheses tagged "8923" (code not explained)) 15 nM.
As for `COCCn1cc(C(=O)N2CCC(c3cc(CN)ccc3F)CC2)c2c(NC(C)=O)cccc21` [Example 96, N-[3-[4-(5-Aminomethyl-2-fluoro-phenyl)-piperidine-1-carbonyl]-1-(2-methoxy-ethyl)-1H-indol-4-yl]-acetamide hydrochloride], under setting [2], the Ki is 18 nM.
Turning to `COCCn1cc(C(=O)N2CCC(c3cc(CN)ccc3F)CC2)c2c(NC(=O)C3CCN(C)CC3)cccc21` [Example 97, 1-Methyl-piperidine-4-carboxylic acid [3-[4-(5-aminomethyl-2-fluoro-phenyl)-piperidine-1-carbonyl]-1-(2-methoxy-ethyl)-1H-indol-4-yl]-amide hydrochloride], under setting [2], the Ki is 28 nM.
For the molecule `COCCn1cc(C(=O)N2CCC(c3cc(CN)ccc3F)CC2)c2c(NC(=O)C3CC4CCC3C4)cccc21` (centres unmarked) [Example 98, Bicyclo[2.2.1]heptane-2-carboxylic acid [3-[4-(5-aminomethyl-2-fluoro-phenyl)-piperidine-1-carbonyl]-1-(2-methoxy-ethyl)-1H-indol-4-yl]-amide hydrochloride], under setting [2], the Ki was 147 nM.
In the case of `COCCn1cc(C(=O)N2CCC(c3cc(CN)ccc3F)CC2)c2c(NC(=O)N3CCOCC3)cccc21` [Example 99, Morpholine-4-carboxylic acid [3-[4-(5-aminomethyl-2-fluoro-phenyl)-piperidine-1-carbonyl]-1-(2-methoxy-ethyl)-1H-indol-4-yl]-amide hydrochloride], the Ki under setting [2] was 25 nM.
With `COCCn1cc(C(=O)N2CCC(c3cc(CN)ccc3F)CC2)c2c(NC(=O)N(C)C)cccc21` [Example 100, 3-[3-[4-(5-Aminomethyl-2-fluoro-phenyl)-piperidine-1-carbonyl]-1-(2-methoxy-ethyl)-1H-indol-4-yl]-1,1-dimethyl-urea hydrorchloride], the Ki under setting [2] is 17 nM.
Still for that read-out and setting: then `COCCn1cc(C(=O)N2CCC(c3cc(CN)ccc3F)CC2)c2c(NC(=O)c3ccncc3)cccc21` [Example 101, N-[3-[4-(5-Aminomethyl-2-fluoro-phenyl)-piperidine-1-carbonyl]-1-(2-methoxy-ethyl)-1H-indol-4-yl]-isonicotinamide hydrochloride], with 11 nM.
Still for that read-out and setting: then `COCCn1cc(C(=O)N2CCC(c3cc(CN)ccc3F)CC2)c2c(NC(=O)c3cncnc3)cccc21` [Example 102, Pyrimidine-5-carboxylic acid [3-[4-(5-aminomethyl-2-fluoro-phenyl)-piperidine-1-carbonyl]-1-(2-methoxy-ethyl)-1H-indol-4-yl]-amide hydrochloride], with 22 nM; and `COCCn1cc(C(=O)N2CCC(c3cc(CN)ccc3F)CC2)c2c(NC(=O)c3ccno3)cccc21` [Example 103, Isoxazole-5-carboxylic acid [3-[4-(5-aminomethyl-2-fluoro-phenyl)-piperidine-1-carbonyl]-1-(2-methoxy-ethyl)-1H-indol-4-yl]-amide hydrochloride], with 41 nM.
Still for that read-out and setting: under `COCCn1cc(C(=O)N2CCC(c3cc(CN)ccc3F)CC2)c2c(NS(=O)(=O)N(C)C)cccc21` [Example 104, Dimethylamino-1-sulfonic acid [3-[4-(5-aminomethyl-2-fluoro-phenyl)-piperidine-1-carbonyl]-1-(2-methoxy-ethyl)-1H-indol-4-yl]-amide] stands 204 nM; under `COCCn1cc(C(=O)N2CCC(c3cc(CN)ccc3F)CC2)c2c(NS(=O)(=O)c3cn(C)cn3)cccc21` [Example 105, 1-Methyl-1H-imidazole-4-sulfonic acid [3-[4-(5-aminomethyl-2-fluoro-phenyl)-piperidine-1-carbonyl]-1-(2-methoxy-ethyl)-1H-indol-4-yl]-amide hydrochloride], 100 nM.
Take `COCCn1cc(C(=O)N2CCC(c3cc(CN)ccc3F)CC2)c2c(NS(=O)(=O)c3cccnc3)cccc21` [Example 106, Pyridine-3-sulfonic acid [3-[4-(5-aminomethyl-2-fluoro-phenyl)-piperidine-1-carbonyl]-1-(2-methoxy-ethyl)-1H-indol-4-yl]-amide hydrochloride]: the Ki under setting [2] is 149 nM.
With `CCCCS(=O)(=O)Nc1cccc2c1c(C(=O)N1CCC(c3cc(CN)ccc3F)CC1)cn2CCOC` [Example 107, Butane-1-sulfonic acid [3-[4-(5-aminomethyl-2-fluoro-phenyl)-piperidine-1-carbonyl]-1-(2-methoxy-ethyl)-1H-indol-4-yl]-amide hydrochloride], the Ki under setting [2] was 315 nM.
As to `COCCn1cc(C(=O)N2CCC(c3cc(CN)ccc3F)CC2)c2c(C(=O)N3CCCC3)cccc21` [Example 108, [4-(5-Aminomethyl-2-fluoro-phenyl)-piperidin-1-yl]-[1-(2-methoxy-ethyl)-4-(pyrrolidine-1-carbonyl)-1H-indol-3-yl]-methanone hydrochloride], the Ki under setting [2] was 15 nM.
`COCCn1cc(C(=O)N2CCC(c3cc(CN)ccc3F)CC2)c2c(C(=O)O)cccc21` [Example 109, 3-[4-(5-Aminomethyl-2-fluoro-phenyl)-piperidine-1-carbonyl]-1-(2-methoxy-ethyl)-1H-indole-4-carboxylic acid trifluoroacetate]: the Ki under setting [1] was 142 nM.
As to `COCCn1cc(C(=O)N2CCC(c3cc(CN)ccc3C(F)(F)F)CC2)c2cccc(C)c21` [Example 110, [4-(5-Aminomethyl-2-trifluoromethyl-phenyl)-piperidin-1-yl]-[1-(2-methoxy-ethyl)-7-methyl-1H-indol-3-yl]-methanone hydrochloride], under setting [2], the Ki is 1260 nM.
With `COCCn1cc(C(=O)N2CCC(c3cc(CN)c(F)cc3F)CC2)c2cccc(C)c21` [Example 111, [4-(5-Aminomethyl-2,4-difluoro-phenyl)-piperidin-1-yl]-[1-(2-methoxy-ethyl)-7-methyl-1H-indol-3-yl]-methanone hydrochloride], under setting [2], the Ki was 1020 nM.
As to `COCCn1cc(C(=O)N2CCC(c3ccc(F)c(CN)c3)CC2)c2cccc(C)c21` [Example 112, [4-(3-Aminomethyl-4-fluoro-phenyl)-piperidin-1-yl]-[1-(2-methoxy-ethyl)-7-methyl-1H-indol-3-yl]-methanone hydrochloride], under setting [2], the Ki is 998 nM.
Regarding `COCCn1cc(C(=O)N2CCC(c3cccc(CN)n3)CC2)c2cccc(C)c21` [Example 113, (6-Aminomethyl-3′,4′,5′,6′-tetrahydro-2′H-[2,4]bipyridinyl-1′-yl)-[1-(2-methoxy-ethyl)-7-methyl-1H-indol-3-yl]-methanone dihydrochloride], the Ki under setting [1] was 656 nM.
For `CCCCOc1ccc(CN)cc1C1CCN(C(=O)c2cn(CCOC)c3c(C)cccc23)CC1` [Example 114, [4-(5-Aminomethyl-2-butoxy-phenyl)-piperidin-1-yl]-[1-(2-methoxy-ethyl)-7-methyl-1H-indol-3-yl]-methanone hydrochloride], the Ki under setting [2] is 526 nM.
With `COCCn1cc(C(=O)N2CCC(c3cc(CN)ccc3OCCc3ccccc3)CC2)c2cccc(C)c21` [Example 115, [4-(5-Aminomethyl-2-phenethyloxy-phenyl)-piperidin-1-yl]-[1-(2-methoxy-ethyl)-7-methyl-1H-indol-3-yl]-methanone hydrochloride], the Ki under setting [2] is 390 nM.
Same read-out and setting: then `COCCn1cc(C(=O)N2CCC(c3cc(F)cc(CN)c3)CC2)c2cccc(C)c21` [Example 116, [4-(5-Aminomethyl-3-fluoro-phenyl)-piperidin-1-yl]-[1-(2-methoxy-ethyl)-7-methyl-1H-indol-3-yl]-methanone hydrochloride], with 746 nM; and `COCCn1cc(C(=O)N2CCC(c3cccc(CN)c3F)CC2)c2cccc(C)c21` [Example 117, [4-(3-Aminomethyl-2-fluoro-phenyl)-piperidin-1-yl]-[1-(2-methoxy-ethyl)-7-methyl-1H-indol-3-yl]-methanone hydrochloride], with 756 nM; and `COCCn1cc(C(=O)N2CCC(c3ccc(Cl)c(CN)c3)CC2)c2cccc(C)c21` [Example 118, [4-(3-Aminomethyl-4-chloro-phenyl)-piperidin-1-yl]-[1-(2-methoxy-ethyl)-7-methyl-1H-indol-3-yl]-methanone hydrochloride], with 832 nM.
As for `COCCn1cc(C(=O)N2CCC(c3cc(CN)ccn3)CC2)c2cccc(C)c21` [Example 119, (4-Aminomethyl-3′,4′,5′,6′-tetrahydro-2′H-[2,4′]bipyridinyl-1′-yl)-[1-(2-methoxy-ethyl)-7-methyl-1H-indol-3-yl]-methanone hydrochloride], the Ki under setting [2] was 180 nM.
